Data on 23 compounds can be found in patent US9527832B2, “Substituted condensed pyrimidine compounds” (GRÜNENTHAL GMBH, priority 2013, dated 2016).

Each structure is given as a SMILES string. Some results are limits rather than exact numbers.

For this assay, the target named is T1, human PDE4B1 (Homo sapiens, UniProt Q07343).
T1 construct: host or cells: Sf9 cells
Description: cAMP HTRF assay to determine the activity of hPDE4B1. In kind it is biochemical. Particulars: for IC50: dose response measurements with eight concentrations, reported as ranges, read-out: IC50. The method, then:
cAMP HTRF® Assay to Determine the Activity of hPDE4B1
The inhibiting effect of the compounds on the enzyme activity of human PDE4B1 was measured by the quantification of 5′-adenosine monophosphate (5′-AMP), which is formed from 3′,5′-cyclic adenosine monophosphate (cAMP). Human recombinant enzyme, expressed in Sf9 cells, and the HTRF (homogeneous time-resolved fluorescence) detection method were used in the assay.
The test compound or water (control) was mixed with the human recombinant PDE4B1 enzyme (4.8 U) in a buffer consisting of 44.4 mM tris-HCl, 5.28 mM MgCl2, 2.64 mM DTT and 0.044% Tween 20 (pH 7.8). After adding the cAMP enzyme substrate (final concentration 40 nM), the mixture was incubated for 30 minutes at room temperature. Then a fluorescence acceptor (Dye2 marked with cAMP), a fluorescence donor (anti-cAMP antibody marked with a europium cryptate) and the non-specific phosphodiesterase inhibitor IBMX (3-isobutyl-1-methylxanthine; final concentration 1 mM) were added. After 60 minutes the fluorescence transfer, which correlates with the amount of remaining cAMP, was measured with a microplate reader (Rubystar, BMG) at λex=337 nm, λem=620 nm and λem=665 nm. The enzyme activity was calculated from the quotient formed from the measured signal at 665 nm and that at 620 nm. The result was expressed as the percentage inhibition of enzyme activity of the control (without PDE4 inhibitor). The enzyme was omitted for measurement of the basal control.
IC50 values (IC50=concentration causing a half-maximal inhibition of control specific activity) were derived from dose response measurements with eight different concentrations (n=2; N=1-2).
Literature: N. Saldou et al., Comparison of recombinant human PDE4 isoforms: interaction with substrate and inhibitors, Cell. Signal. Vol. 10, No. 6, 427-440, 1998
(TR-FRET usually uses a lanthanide donor and a delayed reading to cut background.)

Setting [1] is: Percentage inhibition of PDE4B at 1 μM test concentration.

T1 sequence (Q07343 whole entry): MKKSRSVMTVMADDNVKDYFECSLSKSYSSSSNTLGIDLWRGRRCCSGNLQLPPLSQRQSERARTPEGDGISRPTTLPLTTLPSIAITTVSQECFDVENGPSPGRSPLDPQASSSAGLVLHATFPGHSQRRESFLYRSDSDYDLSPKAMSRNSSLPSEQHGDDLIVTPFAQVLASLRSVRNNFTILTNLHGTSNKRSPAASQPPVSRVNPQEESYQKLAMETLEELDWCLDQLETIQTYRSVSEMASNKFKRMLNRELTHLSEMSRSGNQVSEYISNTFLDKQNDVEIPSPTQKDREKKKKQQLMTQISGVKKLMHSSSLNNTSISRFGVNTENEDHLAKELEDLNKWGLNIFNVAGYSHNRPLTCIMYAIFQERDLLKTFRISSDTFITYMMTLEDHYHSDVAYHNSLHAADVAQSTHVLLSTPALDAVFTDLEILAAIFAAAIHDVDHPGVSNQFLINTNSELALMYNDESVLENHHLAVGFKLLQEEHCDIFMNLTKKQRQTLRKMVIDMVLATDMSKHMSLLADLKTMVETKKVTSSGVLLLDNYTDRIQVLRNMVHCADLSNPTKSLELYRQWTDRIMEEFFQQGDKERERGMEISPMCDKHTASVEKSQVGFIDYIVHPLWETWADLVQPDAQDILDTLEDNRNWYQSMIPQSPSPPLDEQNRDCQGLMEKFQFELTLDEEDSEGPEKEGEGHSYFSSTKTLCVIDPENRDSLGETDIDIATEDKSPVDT

Turning to `CN(C)C(=O)COc1ccc2c(c1)N(c1nc(-c3ccc4ccncc4c3)nc3c1C[S+]([O-])C3)CC2` (stereo not drawn) [2-150, 2-[[1-(2-Isoquinolin-7-yl-6-oxo-5,7-dihydro-thieno[3,4-d]pyrimidin-4-yl)-2,3-dihydro-1H-indol-6-yl]oxy]-N,N-dimethyl-acetamide], the IC50 (as a rule, the midpoint of a concentration-inhibition curve) is less than 0.1 µM. In addition, the inhibition (in general, the change of the read-out against control, counted positive when it falls) at 1 µM under setting [1] was found to be 126%.

For `O=C(COc1ccc2c(c1)N(c1nc(-c3ccc(Cl)s3)nc3c1CS(=O)(=O)C3)CC2)N1CCOCC1` [Compound No. 2-125, 2-((1-(2-(5-Chlorothiophen-2-yl)-6,6-dioxido-5,7-dihydrothieno[3,4-d]pyrimidin-4-yl)indolin-6-yl)oxy)-1-morpholinoethanone], the IC50 is less than 0.1 µM. For the same compound, the inhibition at 1 µM under setting [1] turned out to be 85%.

Take `COC(=O)COc1ccc2c(c1)N(c1nc(-c3ccc(Cl)s3)nc3c1CS(=O)(=O)C3)CC2` [Compound No. 1-77, Methyl 2-((1-(2-(5-chlorothiophen-2-yl)-6,6-dioxido-5,7-dihydrothieno[3,4-d]pyrimidin-4-yl)indolin-6-yl)oxy)acetate]: the IC50 lay within 0.1 to 1 µM. Moreover, the inhibition at 1 µM under setting [1] is 62%.

Consider `O=C(O)Cc1ccc2c(c1)CCN2c1nc(-c2ccc(F)s2)nc2c1CCC2` [Compound No. 1-15, 2-(1-(2-(5-Fluorothiophen-2-yl)-6,7-dihydro-5H-cyclopenta[d]pyrimidin-4-yl)indolin-5-yl)acetic acid], for which the 50% inhibitory concentration (IC50) is less than 0.1 µM. Under setting [1], the inhibition at 1 µM amounted to 100%.

Regarding `O=C(O)Cc1ccc2c(c1)CCN2c1nc(-c2ccc(Cl)s2)nc2c1CCC2` [Compound No. 1-13, 2-(1-(2-(5-Chlorothiophen-2-yl)-6,7-dihydro-5H-cyclopenta[d]-pyrimidin-4-yl)indolin-5-yl)acetic acid], the IC50 is less than 0.1 µM. The inhibition at 1 µM under setting [1] came out at 78%.

`NC(=O)c1ccc(-c2nc3c(c(N4CCc5cc(CC(=O)O)ccc54)n2)CCC3)s1` [Compound No. 1-75, 2-(1-(2-(5-Carbamoylthiophen-2-yl)-6,7-dihydro-5H-cyclopenta[d]pyrimidin-4-yl)indolin-5-yl)acetic acid]: the IC50 was less than 0.1 µM. Also, the inhibition at 1 µM under setting [1] was 101%.

Regarding `CN(C(=O)COc1ccc2c(c1)N(c1nc(-c3ccc(Cl)s3)nc3c1CCC3)CC2)C1CC1` [Compound No. 2-64, 2-((1-(2-(5-Chlorothiophen-2-yl)-6,7-dihydro-5H-cyclopenta[d]pyrimidin-4-yl)indolin-6-yl)oxy)-N-cyclopropyl-N-methylacetamide], the IC50 was in the range of 0.1 to 1 µM. Under setting [1], the inhibition at 1 µM came out at 65%.

On to `CN(C)C(=O)COc1ccc2c(c1)N(c1nc(-c3ccccc3C#N)nc3c1C[S+]([O-])C3)CC2` (stereo not drawn) [2-103, 2-[[1-[2-(2-Cyano-phenyl)-6-oxo-5,7-dihydro-thieno[3,4-d]pyrimidin-4-yl]-2,3-dihydro-1H-indol-6-yl]oxy]-N,N-dimethyl-acetamide], for which the half-inhibitory concentration (IC50) was 0.1 to 1 µM. For the same compound, the inhibition at 1 µM under setting [1] was 91%.

In the case of `CN(C)C(=O)COc1ccc2c(c1)N(c1nc(-c3ccc(F)s3)nc3c1C[S+]([O-])C3)CC2` (stereo not drawn) [2-48, 2-((1-(2-(5-Fluorothiophen-2-yl)-6-oxido-5,7-dihydrothieno[3,4-d]pyrimidin-4-yl)indolin-6-yl)oxy)-N,N-dimethylacetamide], the IC50 was less than 0.1 µM. Besides, the inhibition at 1 µM under setting [1] came out at 94%.

On to `CN(C)C(=O)COc1ccc2c(c1)N(c1nc(-c3ccnc(F)c3)nc3c1C[S+]([O-])C3)CC2` (stereo not drawn) [2-138, 2-((1-(2-(2-Fluoropyridin-4-yl)-6-oxido-5,7-dihydrothieno[3,4-d]pyrimidin-4-yl)indolin-6-yl)oxy)-N,N-dimethylacetamide], for which, under setting [1], the inhibition at 1 µM was 102%. Moreover, under “Percentage inhibition of PDE4B at 1 μM test concentration, 1 µM”, the Inhibition (in general, the relative decrease from the control value, in per cent) at 1 μM test concentration [%] was found to be 101%.

On to `CN(C)C(=O)COc1ccc2c(c1)N(c1nc(-c3ccc(C(N)=O)s3)nc3c1CCC3)CC2` [2-85, 5-(4-(6-(2-(Dimethylamino)-2-oxoethoxy)indolin-1-yl)-6,7-dihydro-5H-cyclopenta[d]pyrimidin-2-yl)thiophene-2-carboxamide], for which the inhibition at 1 µM under setting [1] was 99%.

As to `COC(=O)COc1ccc2c(c1)N(c1nc(-c3ccc(Cl)s3)nc3c1CCC3)CC2` [Compound No. 1-79, Methyl 2-((1-(2-(5-chlorothiophen-2-yl)-6,7-dihydro-5H-cyclopenta[d]pyrimidin-4-yl)indolin-6-yl)oxy)acetate], the IC50 fell in the range of 0.1 to 1 µM. Besides, the inhibition at 1 µM under setting [1] worked out at 88%.

Regarding `COc1ccc(-c2nc3c(c(N4CCc5ccc(OCC(=O)N(C)C)cc54)n2)CS(=O)(=O)C3)cc1` [Compound No. 2-21, 2-((1-(2-(4-Methoxyphenyl)-6,6-dioxido-5,7-dihydrothieno[3,4-d]pyrimidin-4-yl)indolin-6-yl)oxy)-N,N-dimethylacetamide], the IC50 is less than 0.1 µM. The inhibition at 1 µM under setting [1] worked out at 88%.

On to `COc1ccc(-c2nc3c(c(N4CCc5ccc(OCC(=O)N(C)C)cc54)n2)CS(=O)(=O)C3)cc1F` [Compound No. 2-37, 2-((1-(2-(3-Fluoro-4-methoxyphenyl)-6,6-dioxido-5,7-dihydrothieno[3,4-d]pyrimidin-4-yl)indolin-6-yl)oxy)-N,N-dimethylacetamide], for which the IC50 is less than 0.1 µM. Moreover, the inhibition at 1 µM under setting [1] was determined as 96%.

For `CN(C)C(=O)COc1ccc2c(c1)N(c1nc(-c3ccc(Cl)cc3)nc3c1C[S+]([O-])C3)CC2` (stereo not drawn) [2-90, 2-[[1-[2-(4-Chlorophenyl)-6-oxo-5,7-dihydro-thieno[3,4-d]pyrimidin-4-yl]-2,3-dihydro-1H-indol-6-yl]oxy]-N,N-dimethyl-acetamide], the IC50 is less than 0.1 µM. Also, the inhibition at 1 µM under setting [1] was 117%.

In the case of `CN(C)C(=O)COc1ccc2c(c1)N(c1nc(-c3ccc(F)s3)nc3c1CS(=O)(=O)C3)CC2` [Compound No. 2-49, 2-((1-(2-(5-Fluorothiophen-2-yl)-6,6-dioxido-5,7-dihydrothieno[3,4-d]pyrimidin-4-yl)indolin-6-yl)oxy)-N,N-dimethylacetamide], the half-maximal inhibitory concentration (IC50) was less than 0.1 µM. Moreover, under setting [1], the inhibition at 1 µM worked out at 127%.

Turning to `CN(C(=O)COc1ccc2c(c1)N(c1nc(-c3ccc(Cl)s3)nc3c1CS(=O)(=O)C3)CC2)C1CC1` [Compound No. 2-56, 2-((1-(2-(5-Chlorothiophen-2-yl)-6,6-dioxido-5,7-dihydrothieno[3,4-d]pyrimidin-4-yl)indolin-6-yl)oxy)-N-cyclopropyl-N-methylacetamide], the IC50 lay in the range of 0.1 to 1 µM. Further, the inhibition at 1 µM under setting [1] was 68%.

For the compound `CN(C)C(=O)COc1ccc2c(c1)N(c1nc(-c3ccc(C#N)cc3)nc3c1C[S+]([O-])C3)CC2` (stereo not drawn) [2-92, 2-[[1-[2-(4-Cyano-phenyl)-6-oxo-5,7-dihydro-thieno[3,4-d]pyrimidin-4-yl]-2,3-dihydro-1H-indol-6-yl]oxy]-N,N-dimethyl-acetamide], the IC50 is less than 0.1 µM. For the same compound, under setting [1], the inhibition at 1 µM turned out to be 97%.

`O=C(COc1ccc2c(c1)N(c1nc(-c3ccc(Cl)s3)nc3c1CS(=O)(=O)C3)CC2)NC1COC1` [Compound No. 2-60, 2-((1-(2-(5-Chlorothiophen-2-yl)-6,6-dioxido-5,7-dihydrothieno[3,4-d]pyrimidin-4-yl)indolin-6-yl)oxy)-N-(oxetan-3-yl)acetamide]: the IC50 was in the range of 0.1 to 1 µM. Also, the inhibition at 1 µM under setting [1] turned out to be 75%.

Turning to `O=C(O)Cc1ccc2c(c1)CCN2c1nc(-c2csc(Cl)c2)nc2c1CCC2` [Compound No. 1-19, 2-(1-(2-(5-Chlorothiophen-3-yl)-6,7-dihydro-5H-cyclopenta[d]pyrimidin-4-yl)indolin-5-yl)acetic acid], the concentration for half-maximal inhibition (IC50) was less than 0.1 µM. For the same compound, the inhibition at 1 µM under setting [1] is 85%.

Consider `O=C(COc1ccc2c(c1)N(c1nc(-c3ccc(Cl)s3)nc3c1CS(=O)(=O)C3)CC2)N1CCC1` [Compound No. 2-124, 1-(Azetidin-1-yl)-2-((1-(2-(5-chlorothiophen-2-yl)-6,6-dioxido-5,7-dihydrothieno[3,4-d]pyrimidin-4-yl)indolin-6-yl)oxy)ethanone], for which the IC50 is less than 0.1 µM. Besides, the inhibition at 1 µM under setting [1] was found to be 104%.

`O=C(O)Cc1ccc2c(c1)CCN2c1nc(-c2ccc(F)s2)nc2c1CS(=O)(=O)C2` [Compound No. 1-25, 2-(1-(2-(5-Fluoro-thiophen-2-yl)-6,6-dioxo-5,7-dihydro-thieno[3,4-d]pyrimidin-4-yl)-2,3-dihydro-1H-indol-5-yl)acetic acid]: the IC50 is less than 0.1 µM. The inhibition at 1 µM under setting [1] is 103%.

For `COc1cc(-c2nc3c(c(N4CCc5ccc(OCC(=O)N(C)C)cc54)n2)C[S+]([O-])C3)ccc1Cl` (stereo not drawn) [2-111, 2-[[1-[2-(4-Chloro-3-methoxy-phenyl)-6-oxo-5,7-dihydro-thieno[3,4-d]pyrimidin-4-yl]-2,3-dihydro-1H-indol-6-yl]oxy]-N,N-dimethyl-acetamide], the IC50 lay within 0.1 to 1 µM. Under setting [1], the inhibition at 1 µM stood at 72%.
